# Measured values taken from patent US6583180B2, “Glucocorticoid receptor modulators” (Abbott Laboratories, priority 2001, dated 2003).
# Target: T1, Human glucocorticoid receptors (Homo sapiens, UniProt P04150)
# T1 construct: made in house; host or cells: Sf9 insect cells, recombinant baculovirus (BAC-TO-BAC)
# T1 sequence (P04150 1-777): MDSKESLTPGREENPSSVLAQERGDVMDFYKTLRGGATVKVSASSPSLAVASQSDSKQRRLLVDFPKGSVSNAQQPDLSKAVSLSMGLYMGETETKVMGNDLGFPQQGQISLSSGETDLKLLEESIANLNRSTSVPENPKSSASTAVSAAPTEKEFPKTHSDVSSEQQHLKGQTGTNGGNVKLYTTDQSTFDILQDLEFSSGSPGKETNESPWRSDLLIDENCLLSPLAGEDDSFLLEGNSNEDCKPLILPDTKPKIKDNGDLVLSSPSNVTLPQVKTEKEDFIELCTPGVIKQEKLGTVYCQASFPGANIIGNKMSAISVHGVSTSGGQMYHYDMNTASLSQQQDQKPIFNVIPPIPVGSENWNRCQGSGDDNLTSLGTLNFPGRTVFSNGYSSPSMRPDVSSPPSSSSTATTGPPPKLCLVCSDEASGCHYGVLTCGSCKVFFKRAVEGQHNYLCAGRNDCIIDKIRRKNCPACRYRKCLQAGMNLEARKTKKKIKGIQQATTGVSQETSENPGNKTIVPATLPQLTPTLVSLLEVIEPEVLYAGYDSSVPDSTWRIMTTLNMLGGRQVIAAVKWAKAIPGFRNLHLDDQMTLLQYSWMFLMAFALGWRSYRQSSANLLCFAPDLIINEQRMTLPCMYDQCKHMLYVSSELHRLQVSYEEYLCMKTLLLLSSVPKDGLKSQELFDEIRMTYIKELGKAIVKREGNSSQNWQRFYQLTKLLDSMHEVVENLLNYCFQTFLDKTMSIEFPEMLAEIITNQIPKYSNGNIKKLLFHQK
# Assay: Radioligand filter binding assay, displacement of 3[H]-dexamethasone from hGR
# Settings: read-out: GR Binding (% Inhibition at 1.7 μM)
# Excerpt: Dexamethasone hereafter referred to as dex was purchased from SIGMA. […] Human glucocorticoid receptors were extracted from Sf9 cells infected with a recombinant baculovirus transfer vector containing the cloned hGR genes. Recombinant baculovirus was generated utilizing the BAC-TO-BAC expression system (Life Technologies) in accordance to instruction from the supplier. The hGR coding sequences were cloned into a baculovirus transfer vector by standard techniques. The recombinant baculoviruses expressing hGR were amplified and used to infect Sf9 cells. Infected cells were harvested 48 hrs post infection. […] The concentration of hGR in the extract was measured as specific ^3[H]-dex binding with the G25-assay as described in J. Steroid Biochem. Molec. […] The extract was aliquoted and stored at −70° C.
# The filter binding assay: Dilution series of the test compounds and dex as reference were made from 10 mM (1 mM dex) stock solutions in DMSO. 10 μl of the dilutions was added in duplicates to the wells. The cell extracts were diluted 10 fold in EPMo+MTG buffer (1 mM EDTA, HPO4 20 mM (pH8), 6 mM MTG). […] 110 μl of the diluted ^3[H]-dex were added to the wells. The final concentration of hGR in the experiment was estimated to 1 nM. All preparations were made in […] on ice and with +4° C. temperated buffers. The plates were incubated over night at +4° C. (15-20 hours).
# The incubation was stopped by filtration through GF/B filter on the Tomtec Cellharvester. The filtration on the Tomtec Cellharvester was programmed as follows: 1) Preparation before filtration with EP buffer (1 mM EDTA 20 mM HPO4 (pH8)) 2×[Wash/Asp 0.6 sec., Asp 0.5 sec.]; 2) Prewet of GF/B filter with EP+PEI buffer (EP buffer, 0.3% Polyethylenimine) [Asp 0.8 sec.]; 3) Filtration/harvesting of the 96-well incubation plate 3×[Wash/Asp 0.6 sec., Asp 0.5 sec.]. The GF/B filter was dried for at least 1 hour at 65° C. A MeltiLex scintillation wax was melted onto the filter with the Microsealer. The filter was placed in a samplebag, which was thereafter trimmed with scissors to fit the filter cassette. The cassette were placed in the Microbeta and measured for 1 min/position, returning ccpm (corrected counts per minute).
# b=((bmax−bmin)/(1+(I/IC50)^S))+bminI
# The Microbeta-instrument generates the mean cpm (counts per minute) value/minute and corrects for individual variations between the detectors thus generating corrected cpm values.
row,SMILES,inhibition at 1.7 µM [%]
1,"Cc1c(NS(C)(=O)=O)cccc1N(Cc1ccccc1)Cc1ccc(Oc2cccc(OC[C@H](O)CO)c2)cc1 [Example 285, N-(3-{benzyl[4-(3-{[(2R)-2,3-dihydroxypropyl]oxy}phenoxy)benzyl]amino}-2-methylphenyl)methanesulfonamide]",89.7
2,"Cc1c(NS(C)(=O)=O)cccc1N(Cc1ccc(Oc2ccc(Cl)c(OCCCC(=O)NCCCC(=O)O)c2)cc1)Cc1ccc(F)cc1F [Example 320, 4-((4-(2-chloro-5-(4-(((2,4-difluorobenzyl)(2-methyl-3-((methylsulfonyl)amino)phenyl)amino)methyl)phenoxy)phenoxy)butanoyl)amino)butanoic acid]",96.8
3,"Cc1c(NS(C)(=O)=O)cccc1N(Cc1ccccc1)Cc1ccc(Oc2cccc(OC(CCO)C(=O)O)c2)cc1 (stereo not shown) [Example 113, 2-(3-{4-[(benzyl{2-methyl-3-[(methylsulfonyl)amino]phenyl}amino)methyl]phenoxy}phenoxy)-4-hydroxybutanoic acid]",96.4
4,"Cc1c(NS(C)(=O)=O)cccc1N(Cc1ccccc1)Cc1ccc(Oc2ccc(OCCCCC(=O)NC3CCOC3=O)cc2)cc1 (stereo not shown) [Example 268, 5-(4-{4-[(benzyl{2-methyl-3-[(methylsulfonyl)amino]phenyl}amino)methyl]phenoxy}phenoxy)-N-(2-oxotetrahydrofuran-3-yl)pentanamide]",90.8
5,"Cc1c(NS(C)(=O)=O)cccc1N(Cc1ccccc1)Cc1ccc(Oc2ccc(OCCCC(=O)N[C@H](C(=O)O)C(C)C)cc2)cc1 [Example 256, N-[4-(4-{4-[(benzyl{2-methyl-3-[(methylsulfonyl)amino]phenyl}amino)methyl]phenoxy}phenoxy)butanoyl]-L-valine]",92.6
6,"Cc1c(NS(C)(=O)=O)cccc1N(Cc1ccccc1)Cc1ccc(Oc2cccc(OCC3CC3C(=O)O)c2)cc1 (stereo not shown) [Example 284, 2-[(3-{4-[(benzyl{2-methyl-3-[(methylsulfonyl)amino]phenyl}amino)methyl]phenoxy}phenoxy)methyl]cyclopropanecarboxylic acid]",89.6
7,"Cc1c(NS(C)(=O)=O)cccc1N(Cc1ccccc1)Cc1ccc(Oc2ccc(OCCCC(=O)Nc3cc(C(=O)O)n(C)c3)cc2)cc1 [Example 257, 4-{[4-(4-{4-[(benzyl{2-methyl-3-[(methylsulfonyl)amino]phenyl}amino)methyl]phenoxy}phenoxy)butanoyl]amino}-1-methyl-1H-pyrrole-2-carboxylic acid]",90.6
8,"Cc1c(NS(C)(=O)=O)cccc1N(Cc1ccccc1)Cc1ccc(Oc2ccc(OCC(=O)N(C)CC(=O)O)cc2)cc1 [Example 272, N-[(4-{4-[(benzyl{2-methyl-3-[(methylsulfonyl)amino]phenyl}amino)methyl]phenoxy}phenoxy)acetyl]-N-methylglycine]",90.2
9,"Cc1c(NS(C)(=O)=O)cccc1N(Cc1ccccc1)Cc1ccc([N+](=O)[O-])cc1 [Example 8, N-{3-[benzyl(4-nitrobenzyl)amino]-2-methylphenyl}methanesulfonamide]",75.9
10,"Cc1c(NS(C)(=O)=O)cccc1N(Cc1ccccc1)Cc1ccc(Oc2cccc(OCCCC(=O)N3CCCC(C(=O)O)C3)c2)cc1 (stereo not shown) [Example 279, 1-[4-(3-{4-[(benzyl{2-methyl-3-[(methylsulfonyl)amino]phenyl}amino)methyl]phenoxy}phenoxy)butanoyl]piperidine-3-carboxylic acid]",91.7
11,"CCOC(=O)CN(C)C(=O)CCCOc1cccc(Oc2ccc(CN(Cc3ccccc3)c3cccc(NS(C)(=O)=O)c3C)cc2)c1 [Example 239, ethyl N-[4-(3-{4-[(benzyl{2-methyl-3-[(methylsulfonyl)amino]phenyl}amino)methyl]phenoxy}phenoxy)butanoyl]-N-methylglycinate]",93.4
12,"Cc1c(NS(C)(=O)=O)cccc1N(Cc1ccc(Oc2ccc(Cl)c(OCC(=O)NCCCC(=O)O)c2)cc1)Cc1ccc(F)cc1F [Example 318, 4-(((2-chloro-5-(4-(((2,4-difluorobenzyl)(2-methyl-3-((methylsulfonyl)amino)phenyl)amino)methyl)phenoxy)phenoxy)acetyl)amino)butanoic acid]",95.1
13,"CCc1ccc(Oc2ccc(CN(Cc3ccc(F)cc3F)c3cccc(NS(C)(=O)=O)c3C)cc2)cc1OCC(=O)O [Example 236, (5-{4-[((2,4-difluorobenzyl){2-methyl-3-[(methylsulfonyl)amino]phenyl}amino)methyl]phenoxy}-2-ethylphenoxy)acetic acid]",96.1
14,"Cc1c(NS(C)(=O)=O)cccc1N(Cc1ccccc1)Cc1ccc(C(=O)c2cccc(OCCN3CCCC3=O)c2)cc1 [Example 248, N-{3-[benzyl(4-{3-[2-(2-oxopyrrolidin-1-yl)ethoxy]benzoyl}benzyl)amino]-2-methylphenyl}methanesulfonamide]",96.7
15,"Cc1c(NS(C)(=O)=O)cccc1N(Cc1ccccc1)Cc1ccc(Oc2ccc(OCCCC(=O)O)cc2)cc1 [Example 233, 4-(4-{4-[(benzyl{2-methyl-3-[(methylsulfonyl)amino]phenyl}amino)methyl]phenoxy}phenoxy)butanoic acid]",96.8
16,"Cc1c(NS(C)(=O)=O)cccc1N(Cc1ccccc1)Cc1ccc(Oc2ccc(OCCCC(=O)NCCC(=O)O)cc2)cc1 [Example 252, N-[4-(4-{4-[(benzyl{2-methyl-3-[(methylsulfonyl)amino]phenyl}amino)methyl]phenoxy}phenoxy)butanoyl]-beta-alanine]",91.9
17,"Cc1c(NS(C)(=O)=O)cccc1N(Cc1ccccc1)Cc1ccc(Oc2cccc(OCCCCC(=O)O)c2)cc1 [Example 117, 5-(3-{4-[(benzyl{2-methyl-3-[(methylsulfonyl)amino]phenyl}amino)methyl]phenoxyl}phenoxy)pentanoic acid]",98.1
18,"Cc1c(NS(C)(=O)=O)cccc1N(Cc1ccc(OCCc2ccccc2)cc1)Cc1ccc(F)cc1F [Example 158, N-(3-{(2,4-difluorobenzyl)[4-(2-phenylethoxy)benzyl]amino}-2-methylphenyl)methanesulfonamide]",93.1
19,"Cc1c(NS(C)(=O)=O)cccc1N(Cc1ccccc1)Cc1ccc(Oc2cccc(OC[C@@H]3CCCN3)c2)cc1 [Example 291, N-{3-[benzyl(4-{3-[(2S)-pyrrolidin-2-ylmethoxy]phenoxy}benzyl)amino]-2-methylphenyl}methanesulfonamide]",87.7
20,"Cc1c(NS(C)(=O)=O)cccc1N(Cc1ccccc1)Cc1ccc(Oc2cccc(OC[C@@H]3CCCN3C)c2)cc1 [Example 289, N-(3-{benzyl[4-(3-{[(2S)-1-methylpyrrolidin-2-yl]methoxy}phenoxy)benzyl]amino}-2-methylphenyl)methanesulfonamide]",87.8
21,"CCOC(=O)CCCOc1ccc(Oc2ccc(CN(Cc3ccccc3)c3cccc(NS(C)(=O)=O)c3C)cc2)cc1 [Example 232, ethyl 4-(4-{4-[(benzyl{2-methyl-3-[(methylsulfonyl)amino]phenyl}amino)methyl]phenoxy}phenoxy)butanoate]",94.9
22,"Cc1c(NS(C)(=O)=O)cccc1N(Cc1ccccc1)Cc1ccc(Oc2ccc(OCC(=O)N[C@@H](CC(N)=O)C(=O)O)cc2)cc1 [Example 276, N˜2˜-[(4-{4-[(benzyl{2-methyl-3-[(methylsulfonyl)amino]phenyl}amino)methyl]phenoxy}phenoxy)acetyl]-L-asparagine]",89.2
